{"source": "paper PMC2725291", "about": "“Genetic and Molecular Basis of Individual Differences in Human Umami Taste Perception” (PLoS ONE, 2009)", "target": "T1, TAS1R1-372A and TAS1R3-757R (Homo sapiens, UniProt Q7RTX0+Q7RTX1, C757R)", "T1 construct": "expressed in transfected cells; host or cells: HEK293", "T1 sequence (Q7RTX1 21-841)": "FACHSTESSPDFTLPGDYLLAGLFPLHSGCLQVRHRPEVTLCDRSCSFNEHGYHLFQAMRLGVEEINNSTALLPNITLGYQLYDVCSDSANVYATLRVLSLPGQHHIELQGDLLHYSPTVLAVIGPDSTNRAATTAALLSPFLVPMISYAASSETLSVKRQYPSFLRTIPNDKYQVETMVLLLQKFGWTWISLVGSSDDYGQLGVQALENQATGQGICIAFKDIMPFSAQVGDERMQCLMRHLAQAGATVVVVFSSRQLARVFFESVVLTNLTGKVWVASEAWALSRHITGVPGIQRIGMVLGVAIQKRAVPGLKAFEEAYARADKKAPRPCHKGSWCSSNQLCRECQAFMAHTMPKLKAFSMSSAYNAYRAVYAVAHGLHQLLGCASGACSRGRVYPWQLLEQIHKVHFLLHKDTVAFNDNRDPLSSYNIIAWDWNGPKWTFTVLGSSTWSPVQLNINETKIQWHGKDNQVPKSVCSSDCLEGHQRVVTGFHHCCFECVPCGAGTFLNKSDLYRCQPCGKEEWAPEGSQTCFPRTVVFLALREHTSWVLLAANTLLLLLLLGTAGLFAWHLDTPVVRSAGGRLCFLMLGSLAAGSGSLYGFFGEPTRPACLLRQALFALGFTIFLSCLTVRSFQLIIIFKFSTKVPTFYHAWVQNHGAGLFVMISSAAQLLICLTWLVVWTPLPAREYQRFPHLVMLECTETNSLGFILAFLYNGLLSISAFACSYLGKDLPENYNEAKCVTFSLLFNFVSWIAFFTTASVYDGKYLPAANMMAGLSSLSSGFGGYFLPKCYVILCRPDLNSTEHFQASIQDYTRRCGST", "T1 sequence (Q7RTX0 21-852 C757R)": "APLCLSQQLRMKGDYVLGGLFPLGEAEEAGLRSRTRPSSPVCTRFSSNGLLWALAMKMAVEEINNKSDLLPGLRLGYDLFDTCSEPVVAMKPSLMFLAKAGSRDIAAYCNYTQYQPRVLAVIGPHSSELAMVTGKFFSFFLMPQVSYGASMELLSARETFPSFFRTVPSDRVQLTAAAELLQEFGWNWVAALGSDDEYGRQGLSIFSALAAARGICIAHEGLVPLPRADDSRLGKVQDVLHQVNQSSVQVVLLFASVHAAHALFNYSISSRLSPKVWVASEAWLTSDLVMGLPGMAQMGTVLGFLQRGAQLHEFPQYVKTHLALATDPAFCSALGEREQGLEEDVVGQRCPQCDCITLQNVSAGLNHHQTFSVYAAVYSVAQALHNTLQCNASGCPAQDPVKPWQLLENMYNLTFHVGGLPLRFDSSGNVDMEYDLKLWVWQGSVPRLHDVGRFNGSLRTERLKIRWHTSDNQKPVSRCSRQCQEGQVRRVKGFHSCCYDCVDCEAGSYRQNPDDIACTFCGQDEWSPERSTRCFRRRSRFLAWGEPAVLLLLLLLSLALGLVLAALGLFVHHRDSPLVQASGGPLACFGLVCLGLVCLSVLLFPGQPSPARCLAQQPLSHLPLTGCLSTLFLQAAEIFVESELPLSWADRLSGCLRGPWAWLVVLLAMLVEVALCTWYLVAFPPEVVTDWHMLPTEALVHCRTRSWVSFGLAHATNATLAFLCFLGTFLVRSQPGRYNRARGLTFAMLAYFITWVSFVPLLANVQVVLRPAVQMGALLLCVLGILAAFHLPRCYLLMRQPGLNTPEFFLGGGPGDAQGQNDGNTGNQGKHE", "test": "Ca2+ imaging (bath perfusion) in HEK cells transfected with TAS1R1-372A, TAS1R3-757R and Gα16-i3", "type": "cell-based", "details": "5∼100 mM", "description": "HEK293 cells were cultured at 37°C under a humidified atmosphere containing 5% CO2 in Dulbecco's modified Eagle's medium supplemented with 10% fetal bovine serum. To obtain reproducible Ca^2+ responses, cells were split every 2 days before cells become confluent. Cells were discarded after 2 months of passages and new cells were prepared from frozen-stock. For calcium imaging experiments, cells were seeded onto a 35 mm recording chamber or poly-D-lysine coated 96-well black-wall, clear-bottom recording plates. After 24 hrs at 37°C, confluent cells (60∼70%) were washed in OptiMEM medium supplemented with GlutaMAX-I (invitrogen) and plasmid DNAs were transiently cotransfected into HEK293 cells using Lipofectamine2000 regent (invitrogen) (2.0 µl per 1.0 µg DNA). TAS1Rs (or their mutants) and Gαl6-i3 were transfected using 1.5 and 1.0 µg of plasmid for 35 mm recording chambers, 0.09 and 0.06 µg of plasmid per well for 96-well plates, respectively. […] Immuno staining and Ca^2+ imaging assays were performed 36∼40 hrs after transfection.\nTwo Ca^2+ imaging systems were used. A bath perfusion system was used for kinetics of activation. Transfected cells in 35 mm recording chambers were washed in Hank's balanced salt solution (HBSS) containing 10 mM HEPES, pH 7.4, and loaded with 3.0 µM Fluo-4 acetoxymethyl ester (invitrogen) for 1.0 hr at 37°C. The dye-loaded cells were subjected to Ca^2+ imaging. Taste solutions diluted in HBSS were applied sequentially to the cells for 30 s with a peristaltic pump at a flow rate of 1.5 ml/min, and fluorescence images were obtained using a S Fluor ×20/0.75 objective lens (Nikon) via a cooled-CCD camera (C6790, Hamamatsu Photonics) fitted to a TE300 microscope (Nikon). Acquisition and analysis of these fluorescence images used AquaCosmos software (v. 1.3, Hamamatsu Photonics). A 3 min interval was left between each tastant application to ensure that the cells were not desensitized as a result of the previous application of tastants. Responses were measured from 30 individual responding cells. […] Isoproterenol (ISO, 10 µM) was used as positive control, which stimulates endogenous β-adrenergic receptors, providing that the Gα16-dependent signal transduction cascade was functional."}
{"compound": "N[C@@H](CCC(=O)O)C(=O)[O-].[Na+]", "note": "[MSG, monosodium glutamate]", "values": [{"measurement": "activation (Ca2+ mobilization) of transfected cells", "result": "elicited transient intracellular calcium increases"}]}
